One may read the Kd as the constant that tells how readily two partners part at equilibrium. Read a low Kd as higher affinity.

Molecules are shown by their SMILES.

In the test the target is T1, EAG1 (mEAG1) (Mus musculus, UniProt Q60603).
T1 construct: gene Kcnh1
T1 sequence (Q60603 505-702): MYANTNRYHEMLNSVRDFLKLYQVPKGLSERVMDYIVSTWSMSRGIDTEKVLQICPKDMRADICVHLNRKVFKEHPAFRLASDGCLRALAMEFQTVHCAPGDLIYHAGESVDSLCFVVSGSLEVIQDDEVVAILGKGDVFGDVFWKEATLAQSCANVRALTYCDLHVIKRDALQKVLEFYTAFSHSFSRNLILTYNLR
The test is described as follows: tryptophan fluorescence titration of purified C-terminal region; gating effect also seen in inside-out patches. It is filed as binding.

In turn, `O=c1c(O)c(-c2cc(O)c(O)c(O)c2)oc2cc(O)cc(O)c12` [myricetin] had a Kd above 100 µM.

Values taken from PMC2932742, “Identifying Regulators for EAG1 Channels with a Novel Electrophysiology and Tryptophan Fluorescence Based Screen” (PLoS ONE, 2010).
